Calls of active or inactive are those of the source. The rule behind the calls is not given here. Non-standard residues stand in square brackets, D forms with d. Residues, ends and D or L forms follow the SMILES beside them. hArg = N=C(N)NCCCC[C@H](N)C(=O)O; Agb = N=C(N)NCC[C@H](N)C(=O)O; Agp = N=C(N)NC[C@H](N)C(=O)O; Orn = NCCC[C@H](N)C(=O)O; Dab = NCC[C@H](N)C(=O)O; Dap = NC[C@H](N)C(=O)O
Experiments:
Staphylococcus aureus [1] = test: Antibiofilm activity against methicillin-resistant Staphylococcus aureus assessed as inhibition of biofilm formation by measuring residual biofilm growth incubated for overnight at 10-fold dilution by crystal violet staining based microtiter plate assay relative to control; assay type: functional
Staphylococcus aureus [2] = test: Antibiofilm activity against methicillin-resistant Staphylococcus aureus assessed as inhibition of biofilm formation incubated for overnight by crystal violet staining based microtiter plate assay; assay type: functional, organism-based
Staphylococcus aureus [3] = test: Antibacterial activity against methicillin-resistant Staphylococcus aureus assessed as alteration in bacterial growth incubated for overnight by microtiter plate based spectrophotometric analysis; assay type: functional, organism-based

Structure (SMILES) | residual biofilm growth (% of control) (Staphylococcus aureus [1]) | inhibition (Staphylococcus aureus [2]) | Activity (Staphylococcus aureus [3])
CC[C@H](C)[C@H](NC(=O)[C@H](CCCNC(=N)N)NC(=O)[C@@H](NC(=O)[C@H](CNC(=N)N)NC(=O)[C@@H](NC(=O)[C@@H](NC(=O)[C@H](CC(C)C)NC(=O)[C@H](CCCNC(=N)N)NC(=O)[C@@H](N)C(C)C)[C@@H](C)CC)C(C)C)C(C)C)C(=O)N[C@@H](Cc1c[nH]c2ccccc12)C(=O)N[C@@H](CCCNC(=N)N)C(=O)N[C@@H](CCCNC(=N)N)C(N)=O (H-VRLIV[Agp]VRIWRR-NH2) | 104.8% | Dose-dependent effect | Active
CC[C@H](C)[C@H](NC(=O)[C@H](CCCNC(=N)N)NC(=O)[C@@H](NC(=O)[C@H](CCN)NC(=O)[C@@H](NC(=O)[C@@H](NC(=O)[C@H](CC(C)C)NC(=O)[C@H](CCCNC(=N)N)NC(=O)[C@@H](N)C(C)C)[C@@H](C)CC)C(C)C)C(C)C)C(=O)N[C@@H](Cc1c[nH]c2ccccc12)C(=O)N[C@@H](CCCNC(=N)N)C(=O)N[C@@H](CCCNC(=N)N)C(N)=O (H-VRLIV[Dab]VRIWRR-NH2) | 52.7% | Dose-dependent effect | Active
CC[C@H](C)[C@H](NC(=O)[C@H](CCCNC(=N)N)NC(=O)[C@@H](NC(=O)[C@H](CN)NC(=O)[C@@H](NC(=O)[C@@H](NC(=O)[C@H](CC(C)C)NC(=O)[C@H](CCCNC(=N)N)NC(=O)[C@@H](N)C(C)C)[C@@H](C)CC)C(C)C)C(C)C)C(=O)N[C@@H](Cc1c[nH]c2ccccc12)C(=O)N[C@@H](CCCNC(=N)N)C(=O)N[C@@H](CCCNC(=N)N)C(N)=O (H-VRLIV[Dap]VRIWRR-NH2) | 34.1% | Dose-dependent effect | Active
CC[C@H](C)[C@H](NC(=O)[C@H](CCCNC(=N)N)NC(=O)[C@@H](NC(=O)[C@H](CCCN)NC(=O)[C@@H](NC(=O)[C@@H](NC(=O)[C@H](CC(C)C)NC(=O)[C@H](CCCNC(=N)N)NC(=O)[C@@H](N)C(C)C)[C@@H](C)CC)C(C)C)C(C)C)C(=O)N[C@@H](Cc1c[nH]c2ccccc12)C(=O)N[C@@H](CCCNC(=N)N)C(=O)N[C@@H](CCCNC(=N)N)C(N)=O (H-VRLIV[Orn]VRIWRR-NH2) | 14.2% | Dose-dependent effect | Active
CC[C@H](C)[C@H](NC(=O)[C@H](CCCNC(=N)N)NC(=O)[C@@H](NC(=O)[C@H](CCCCNC(=N)N)NC(=O)[C@@H](NC(=O)[C@@H](NC(=O)[C@H](CC(C)C)NC(=O)[C@H](CCCNC(=N)N)NC(=O)[C@@H](N)C(C)C)[C@@H](C)CC)C(C)C)C(C)C)C(=O)N[C@@H](Cc1c[nH]c2ccccc12)C(=O)N[C@@H](CCCNC(=N)N)C(=O)N[C@@H](CCCNC(=N)N)C(N)=O (H-VRLIV[hArg]VRIWRR-NH2) | 19.7% | Dose-dependent effect | Active
CC[C@H](C)[C@H](NC(=O)[C@H](CC(C)C)NC(=O)[C@H](CCCNC(=N)N)NC(=O)[C@@H](N)C(C)C)C(=O)N[C@@H](CCNC(=N)N)C(=O)N[C@@H](C)C(=O)N[C@H](C(=O)N[C@@H](CCCNC(=N)N)C(=O)N[C@H](C(=O)N[C@@H](Cc1c[nH]c2ccccc12)C(=O)N[C@@H](CCCNC(=N)N)C(=O)N[C@@H](CCCNC(=N)N)C(N)=O)[C@@H](C)CC)C(C)C (H-VRLI[Agb]AVRIWRR-NH2) | 103.2% | Dose-dependent effect | Active
CC[C@H](C)[C@H](NC(=O)[C@H](CC(C)C)NC(=O)[C@H](CCCNC(=N)N)NC(=O)[C@@H](N)C(C)C)C(=O)N[C@@H](CNC(=N)N)C(=O)N[C@@H](C)C(=O)N[C@H](C(=O)N[C@@H](CCCNC(=N)N)C(=O)N[C@H](C(=O)N[C@@H](Cc1c[nH]c2ccccc12)C(=O)N[C@@H](CCCNC(=N)N)C(=O)N[C@@H](CCCNC(=N)N)C(N)=O)[C@@H](C)CC)C(C)C (H-VRLI[Agp]AVRIWRR-NH2) | 99.9% | Dose-dependent effect | Active
CC[C@H](C)[C@H](NC(=O)[C@H](CC(C)C)NC(=O)[C@H](CCCNC(=N)N)NC(=O)[C@@H](N)C(C)C)C(=O)N[C@@H](CCN)C(=O)N[C@@H](C)C(=O)N[C@H](C(=O)N[C@@H](CCCNC(=N)N)C(=O)N[C@H](C(=O)N[C@@H](Cc1c[nH]c2ccccc12)C(=O)N[C@@H](CCCNC(=N)N)C(=O)N[C@@H](CCCNC(=N)N)C(N)=O)[C@@H](C)CC)C(C)C (H-VRLI[Dab]AVRIWRR-NH2) | 102.7% | Dose-dependent effect | Active
CC[C@H](C)[C@H](NC(=O)[C@H](CC(C)C)NC(=O)[C@H](CCCNC(=N)N)NC(=O)[C@@H](N)C(C)C)C(=O)N[C@@H](CN)C(=O)N[C@@H](C)C(=O)N[C@H](C(=O)N[C@@H](CCCNC(=N)N)C(=O)N[C@H](C(=O)N[C@@H](Cc1c[nH]c2ccccc12)C(=O)N[C@@H](CCCNC(=N)N)C(=O)N[C@@H](CCCNC(=N)N)C(N)=O)[C@@H](C)CC)C(C)C (H-VRLI[Dap]AVRIWRR-NH2) | 92% | Dose-dependent effect | Active
CC[C@H](C)[C@H](NC(=O)[C@H](CC(C)C)NC(=O)[C@H](CCCNC(=N)N)NC(=O)[C@@H](N)C(C)C)C(=O)N[C@@H](CCCN)C(=O)N[C@@H](C)C(=O)N[C@H](C(=O)N[C@@H](CCCNC(=N)N)C(=O)N[C@H](C(=O)N[C@@H](Cc1c[nH]c2ccccc12)C(=O)N[C@@H](CCCNC(=N)N)C(=O)N[C@@H](CCCNC(=N)N)C(N)=O)[C@@H](C)CC)C(C)C (H-VRLI[Orn]AVRIWRR-NH2) | 103% | Dose-dependent effect | Active
CC[C@H](C)[C@H](NC(=O)[C@H](CC(C)C)NC(=O)[C@H](CCCNC(=N)N)NC(=O)[C@@H](N)C(C)C)C(=O)N[C@@H](CCCCNC(=N)N)C(=O)N[C@@H](C)C(=O)N[C@H](C(=O)N[C@@H](CCCNC(=N)N)C(=O)N[C@H](C(=O)N[C@@H](Cc1c[nH]c2ccccc12)C(=O)N[C@@H](CCCNC(=N)N)C(=O)N[C@@H](CCCNC(=N)N)C(N)=O)[C@@H](C)CC)C(C)C (H-VRLI[hArg]AVRIWRR-NH2) | 110.4% | Dose-dependent effect | Active
CC[C@H](C)[C@H](NC(=O)[C@H](CCCNC(=N)N)NC(=O)[C@@H](NC(=O)[C@H](C)NC(=O)[C@@H](NC(=O)[C@H](CCNC(=N)N)NC(=O)[C@H](CC(C)C)NC(=O)[C@H](CCCNC(=N)N)NC(=O)[C@@H](N)C(C)C)C(C)C)C(C)C)C(=O)N[C@@H](Cc1c[nH]c2ccccc12)C(=O)N[C@@H](CCCNC(=N)N)C(=O)N[C@@H](CCCNC(=N)N)C(N)=O (H-VRL[Agb]VAVRIWRR-NH2) | 98.5% | Dose-dependent effect | Active
CC[C@H](C)[C@H](NC(=O)[C@H](CCCNC(=N)N)NC(=O)[C@@H](NC(=O)[C@H](C)NC(=O)[C@@H](NC(=O)[C@H](CNC(=N)N)NC(=O)[C@H](CC(C)C)NC(=O)[C@H](CCCNC(=N)N)NC(=O)[C@@H](N)C(C)C)C(C)C)C(C)C)C(=O)N[C@@H](Cc1c[nH]c2ccccc12)C(=O)N[C@@H](CCCNC(=N)N)C(=O)N[C@@H](CCCNC(=N)N)C(N)=O (H-VRL[Agp]VAVRIWRR-NH2) | 104.1% | Dose-dependent effect | Active

From ChEMBL document CHEMBL4376833, “Influence of Non-natural Cationic Amino Acids on the Biological Activity Profile of Innate Defense Regulator Peptides” (J Med Chem, 2019)
